This note sets out measurements from patent US8871767B2, “2-arylimidazo[1,2-B]pyridazine, 2-phenylimidazo[1,2-A]pyridine, and 2-phenylimidazo[1,2-A]pyrazine derivatives” (Hengrui (USA) Ltd., priority 2010, dated 2014).

Test [1] has as its system Hedgehog pathway activation (GLi-luciferase reporter) in Shh Light II reporter cells. The test is described as follows: Hedgehog pathway activation on Shh Light II reporter cells measured by luciferase activity. The conditions noted are these: Mus musculus, Shh Light II. The test is classed as cell-based. In short, it runs like this: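 Shh Light II reporter cells carrying a hedgehog-responsive GLi-luciferase reporter were stimulated either with 500 nM SAG, a direct Smoothened agonist, or with conditioned media containing human Sonic Hedgehog (hShh). Test compounds were evaluated for blocking this pathway activation, quantified by luciferase activity. Cell viability was monitored in parallel with the Celltiter-Blue® assay.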

Test [2] relates to Hedgehog pathway activation on 10T1/2/Smo#3 cells (C3H10T1/2 cells transfected with human Smoothened receptor). In words: Hedgehog pathway activation on 10T1/2/Smo#3 cells measured by ALP activity. The conditions noted are these: Mus musculus, C3H 10T1/2, 10T1/2/Smo#3 cells. The test is classed as cell-based. In short, it runs like this: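 C3H10T1/2 cells stably expressing human Smoothened were activated with hShh-conditioned medium (10-20%) or 500 nM SAG, with test compounds present. Pathway block read as inhibited ALP activity (4-methylumbelliferyl phosphate fluorescence); viability checked by CellTiter-Blue. IC50 values reported.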

Setting [3] is: hShh activation, read-out: Shh (IC50, inhibition of Hedgehog pathway activation).
Setting [4] is: measured by ALP activity, read-out: ALP (IC50, inhibition of Hedgehog pathway activation).
[5] abbreviates: SAG activation (500 nM SAG), read-out: Shh Light II luciferase activity (SAG activation).
Where [6] appears, read: hShh activation, read-out: Shh Light II luciferase activity (hShh activation).
[7] abbreviates: hShh activation, ALP activity, read-out: 10T1/2/Smo#3 ALP activity (hShh Activation).

Read-outs that look alike come from different tables or passages of the source.

Regarding `Cc1ccc(-c2cn3nc(-c4ccccc4C(F)(F)F)ccc3n2)cc1NC(=O)C(C)(C)C` [Example 259, N-(2-methyl-5-(6-(2-(trifluoromethyl)phenyl)imidazo[1,2-b]pyridazin-2-yl)phenyl)pivalamide], the IC50 in test [1] (setting [3]) is 84 nM; in test [2] (setting [4]), 80 nM.
For the molecule `CC(C)(C)C(=O)Nc1cc(-c2cn3nc(C#N)ccc3n2)ccc1C(F)(F)F` [Example 173, N-(5-(6-cyanoimidazo[1,2-b]pyridazin-2-yl)-2-(trifluoromethyl)phenyl)pivalamide], the IC50 in test [1] (setting [5]) was 3000 to 30000 nM; in test [1] (setting [3]) it was 4400 nM; in test [1] (setting [6]) it was 3000 to 30000 nM; in test [2] (setting [7]), 3000 to 30000 nM; in test [2] (setting [4]), 4430 nM.
For the molecule `CC(C)(C)C(=O)Nc1cc(-c2cn3nc(-c4cccnc4F)ccc3n2)ccc1C(F)(F)F` [Example 176, N-(5-(6-(2-fluoropyridin-3-yl)imidazo[1,2-b]pyridazin-2-yl)-2-(trifluoromethyl)phenyl)pivalamide], the IC50 in test [1] (setting [3]) turned out to be 79 nM; in test [2] (setting [4]) it was 97 nM.
For `CC(C)(C)C(=O)Nc1cc(-c2cn3nc(N4CCC(O)CC4)ccc3n2)ccc1C1CC1` [Example 273, N-(2-cyclopropyl-5-(6-(4-hydroxypiperidin-1-yl)imidazo[1,2-b]pyridazin-2-yl)phenyl)pivalamide], the IC50 is 3000 to 30000 nM in test [1] (setting [5]), 3000 to 30000 nM in test [1] (setting [6]), 300 to 3000 nM in test [2] (setting [7]) and 442 nM in test [2] (setting [4]).
In the case of `CC(C)(C)NS(=O)(=O)c1cc(-c2cn3nc(-c4cccnc4C(F)(F)F)ccc3n2)ccc1Cl` [Example 699, N-tert-butyl-2-chloro-5-(6-(2-(trifluoromethyl)pyridin-3-yl)imidazo[1,2-b]pyridazin-2-yl)benzenesulfonamide], the IC50 was 2300 nM in test [1] (setting [3]) and above 10000 nM in test [2] (setting [4]).
`CN(C)c1ccc2nc(-c3ccc(C(F)(F)F)c(NC(=O)C(C)(C)C)c3)cn2n1` [Example 138, N-(5-(6-(dimethylamino)imidazo[1,2-b]pyridazin-2-yl)-2-(trifluoromethyl)phenyl)pivalamide]: the IC50 in test [1] (setting [3]) is 3450 nM; in test [2] (setting [4]), 2170 nM.
Regarding `CCN(CC)C(=O)Nc1cc(-c2cn3nc(-c4cccnc4C(F)(F)F)ccc3n2)ccc1Cl` [Example 655, 3-(2-chloro-5-(6-(2-(trifluoromethyl)pyridin-3-yl)imidazo[1,2-b]pyridazin-2-yl)phenyl)-1,1-diethylurea], the IC50 was below 300 nM in test [1] (setting [5]); 23 nM in test [1] (setting [3]); below 300 nM in test [1] (setting [6]); below 300 nM in test [2] (setting [7]); 70 nM in test [2] (setting [4]).
For `Cc1ccc(-c2cn3nc(-c4cccnc4C(F)(F)F)ccc3n2)cc1NC(=O)C1CCCN1` (centres unmarked) [Example 645, N-(2-methyl-5-(6-(2-(trifluoromethyl)pyridin-3-yl)imidazo[1,2-b]pyridazin-2-yl)phenyl)pyrrolidine-2-carboxamide], the IC50 in test [1] (setting [3]) worked out at 589 nM; in test [2] (setting [4]), 155 nM.
Consider `Cc1c(-c2ccccc2)nc2ccc(N3CCN(Cc4ccc(OC(F)(F)F)cc4)CC3)nn12` [Example 166, 3-methyl-2-phenyl-6-(4-(4-(trifluoromethoxy)benzyl)piperazin-1-yl)imidazo[1,2-b]pyridazine], for which the IC50 in test [1] (setting [3]) came out at 995 nM; in test [2] (setting [4]), 1970 nM.
Take `CCN[C@@H]1CCN(c2ccc3nc(-c4ccc(C)c(NC(=O)C(C)(C)C)c4)cn3n2)C1` [Example 393, (R)-N-(5-(6-(3-(ethylamino)pyrrolidin-1-yl)imidazo[1,2-b]pyridazin-2-yl)-2-methylphenyl)pivalamide]: the IC50 in test [1] (setting [5]) was 300 to 3000 nM; in test [1] (setting [3]), 31 nM; in test [1] (setting [6]), below 300 nM; in test [2] (setting [7]) it was below 300 nM; in test [2] (setting [4]), 34 nM.
Consider `CC(C)(C)C(=O)Nc1cc(-c2cn3nc(N4CCN(S(C)(=O)=O)CC4)ccc3n2)ccc1C(F)(F)F` [Example 234, N-(5-(6-(4-(methylsulfonyl)piperazin-1-yl)imidazo[1,2-b]pyridazin-2-yl)-2-(trifluoromethyl)phenyl)pivalamide], for which the IC50 stood at 547 nM in test [1] (setting [3]) and 230 nM in test [2] (setting [4]).
In the case of `O=C(Nc1cc(-c2cn3nc(-c4cccnc4C(F)(F)F)ccc3n2)ccc1F)C1CCCCC1` [Example 677, N-(2-fluoro-5-(6-(2-(trifluoromethyl)pyridin-3-yl)imidazo[1,2-b]pyridazin-2-yl)phenyl)cyclohexanecarboxamide], the figures for the IC50 in test [1] (setting [3]) and in test [2] (setting [4]) were 146 nM and 637 nM, respectively.
For the molecule `CCOc1ccc2nc(-c3ccc(C(F)(F)F)c(NC(=O)C4CC4)c3)cn2n1` [Example 186, N-(5-(6-ethoxyimidazo[1,2-b]pyridazin-2-yl)-2-(trifluoromethyl)phenyl)cyclopropanecarboxamide], the IC50 in test [1] (setting [3]) is above 10000 nM; in test [2] (setting [4]), 8380 nM.
On the same counts, the results for `Cc1ccc(-c2ccc3nc(-c4ccc(C(F)(F)F)c(NC(=O)C(C)(C)C)c4)cn3n2)nc1` [Example 150, N-(5-(6-(5-methylpyridin-2-yl)imidazo[1,2-b]pyridazin-2-yl)-2-(trifluoromethyl)phenyl)pivalamide] are 1280 nM and 2740 nM.
As to `Cc1c(Cl)nn2cc(-c3ccc(C(F)(F)F)c(NC(=O)C(C)(C)C)c3)nc2c1C` [Example 198, N-(5-(6-chloro-7,8-dimethylimidazo[1,2-b]pyridazin-2-yl)-2-(trifluoromethyl)phenyl)pivalamide], the IC50 was 3000 to 30000 nM in test [1] (setting [5]); 1680 nM in test [1] (setting [3]); 300 to 3000 nM in test [1] (setting [6]); 300 to 3000 nM in test [2] (setting [7]); 1970 nM in test [2] (setting [4]).
With `CC(C)(C)C(=O)Nc1cc(-c2cn3nc(C(N)=O)ccc3n2)ccc1C(F)(F)F` [Example 180, 2-(3-pivalamido-4-(trifluoromethyl)phenyl)imidazo[1,2-b]pyridazine-6-carboxamide], the IC50 in test [1] (setting [5]) is 3000 to 30000 nM; in test [1] (setting [3]) it was 3880 nM; in test [1] (setting [6]), 3000 to 30000 nM; in test [2] (setting [7]), 3000 to 30000 nM; in test [2] (setting [4]), 5730 nM.
In the case of `Cc1ncccc1-c1ccc2nc(-c3ccc(C(F)(F)F)c(NC(=O)C(C)(C)C)c3)cn2n1` [Example 293, N-(5-(6-(2-methylpyridin-3-yl)imidazo[1,2-b]pyridazin-2-yl)-2-(trifluoromethyl)phenyl)pivalamide], the IC50 in test [1] (setting [3]) was determined as 310 nM; in test [2] (setting [4]) it was 221 nM.
The matching figures for `CC(C)(C)C(=O)Nc1cc(-c2cn3nc(N4CCCC(CO)C4)ccc3n2)ccc1C(F)(F)F` (centres unmarked) [Example 354, N-(5-(6-(3-(hydroxymethyl)piperidin-1-yl)imidazo[1,2-b]pyridazin-2-yl)-2-(trifluoromethyl)phenyl)pivalamide]: 332 nM and 554 nM.
Turning to `COc1ccc2nc(-c3ccc(C)c(NC(=O)c4ccccc4)c3)cn2n1` [Example 97, N-(5-(6-methoxyimidazo[1,2-b]pyridazin-2-yl)-2-methylphenyl)benzamide], the IC50 stood at 679 nM in test [1] (setting [3]) and 1120 nM in test [2] (setting [4]).
For the molecule `CC(C)(C)C(=O)Nc1cc(-c2cn3nc(-c4cccnc4)ccc3n2)ccc1C(F)(F)F` [Example 153, N-(5-(6-(pyridin-3-yl)imidazo[1,2-b]pyridazin-2-yl)-2-(trifluoromethyl)phenyl)pivalamide], the IC50 in test [1] (setting [5]) is 300 to 3000 nM; in test [1] (setting [3]), 264 nM; in test [1] (setting [6]), below 300 nM; in test [2] (setting [7]), 300 to 3000 nM; in test [2] (setting [4]) it was 410 nM.
`Cc1ccc(-c2cn3nc(-c4cccc(C(F)(F)F)c4)ccc3n2)cc1NC(=O)C(C)(C)C` [Example 260, N-(2-methyl-5-(6-(3-(trifluoromethyl)phenyl)imidazo[1,2-b]pyridazin-2-yl)phenyl)pivalamide]: the IC50 in test [1] (setting [3]) came to 297 nM; in test [2] (setting [4]), 325 nM.
The matching figures for `Cn1cccc1-c1ccc2nc(-c3ccc(C(F)(F)F)c(NC(=O)C(C)(C)C)c3)cn2n1` [Example 379, N-(5-(6-(1-methyl-1H-pyrrol-2-yl)imidazo[1,2-b]pyridazin-2-yl)-2-(trifluoromethyl)phenyl)pivalamide]: above 10000 nM and 1860 nM.
Turning to `Cc1ccc(-c2cn3cccnc3n2)cc1NC(=O)CC(C)(C)C` [Example 89, N-(5-(imidazo[1,2-a]pyrimidin-2-yl)-2-methylphenyl)-3,3-dimethylbutanamide], the IC50 in test [1] (setting [5]), in test [1] (setting [6]) and in test [2] (setting [7]) was 3000 to 30000 nM in each case.
As for `CCN(CC)C(=O)Nc1cc(-c2cn3nc(-c4cccnc4C(F)(F)F)ccc3n2)ccc1F` [Example 685, 1,1-diethyl-3-(2-fluoro-5-(6-(2-(trifluoromethyl)pyridin-3-yl)imidazo[1,2-b]pyridazin-2-yl)phenyl)urea], the IC50 was found to be 139 nM in test [1] (setting [3]) and 274 nM in test [2] (setting [4]).
On the same counts, the results for `CCOc1ccc2nc(-c3ccc(C(F)(F)F)c(NC(=O)c4ccccc4F)c3)cn2n1` [Example 192, N-(5-(6-ethoxyimidazo[1,2-b]pyridazin-2-yl)-2-(trifluoromethyl)phenyl)-2-fluorobenzamide] are 1580 nM and 4760 nM.
